Consider 2 compounds from EP1119538B1, “DERIVATIVES OF PHENANTRENE FOR MEDICINAL USE AND A PROCESS FOR THEIR PREPARATION” (Ammar, Khodor, priority 1998, dated 2000).

The experiment deals with intestinal adenocarcinoma cells (lineage CACO-2). The experiment is described as follows: Proliferation inhibition in intestinal adenocarcinoma cells, lineage CACO-2. In kind it is cell-based. Conditions: cell lineage CACO-2. How it is done: Further research has recently been carried out using retinoic acid, sodium butyrate and the invention substances obtained as in Example 1. More specifically, tests were conducted on intestinal adenocarcinoma cells (lineages CACO-2 and HT-29) using isomers of molecular weight 256 - hereinafter referred to simply as "esters 256" - and using the compound of molecular weight 330 corresponding to formula IV, and mixtures mainly containing said compound - hereinafter referred to simply as "HHP" (hydroxy-hydro-phenanthrene). The results were as follows: • 1. The proliferation-inhibiting effect of HHP and butyrate on cell lineage CACO-2 is 80% as compared with 60% for retinoic acid. Inhibition in cell lineage HT-29 treated with HHP of 50µM concentration was 95% by the seventh day. • 2. […] HHP induces in the cell lineages a 3.5 times increase in the number of domes, indicating greater cell differentiation. • 6. […] In CACO-2, alpha 2,6, xyalyl transferase increases 3 times with respect to the control after two weeks' treatment with HHP.

Turning to `CC1=C(/C=C/C(C)=C/C=C/C(C)=C/C(=O)O)C(C)(C)CCC1` [retinoic acid, reference compound], the proliferation-inhibiting effect is 60%.
Next, `CCCC(=O)[O-].[Na+]` [butyrate, sodium butyrate, reference compound]: 80%.
